Holding throughout (assay): NCI-60 cell line screen, 48 h
Test [1] concerns NCI/ADR-RES ovarian.
Test [2] deals with SNB-75 CNS.
The subject of test [3] is OVCAR-3 ovarian.
The subject of test [4] is HCT-15 colon.
Test [5] deals with HOP-62 NSCLC.
Test [6] deals with M14 melanoma.
Test [7] has as its system HCT-116 colon.
Test [8] has as its system UO-31 renal.
Test [9] deals with SK-MEL-28 melanoma.
Test [10] deals with 786-0 renal.

In PubChem BioAssay (NCI) one finds GI50 and TGI data, which are given here for six compounds.

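A five-concentration, 48-hour dose response in 96-well plates underlies each endpoint, interpolated linearly between surrounding concentrations. GI50 marks 50% less growth. At the TGI there is no net growth.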

In the case of `CS(=O)(=O)CCNCc1ccc(-c2ccc3ncnc(Nc4ccc(OCc5ccccc5)c(Cl)c4)c3c2)o1`, the GI50 is 5.9 µM in [1]; 4.94 µM in test [2]; 6.54 µM in test [3]; 3.55 µM in test [4]; 6.83 µM in test [5]; 4.82 µM in test [6]. The GI50 in test [7] was 4.53 µM; in test [8] it was 1.64 µM; in test [9], 3.85 µM; in test [10], 4.06 µM. Also, the TGI is over 25 µM in [1]; over 25 µM in [2]; over 25 µM in [3]; 10 µM in [4]; over 20.3 µM in test [5]; 10 µM in test [6]. The TGI in test [7] was determined as 9.54 µM; in test [8], 7.38 µM; in test [9], 7.49 µM; in test [10], 8.58 µM.
With `C=C1C(=O)O[C@H]2[C@H]1CC/C(COC(=O)c1ccc(C#N)cc1)=C\CC[C@@]1(C)O[C@@H]21`, the GI50 in test [1] is 4.25 µM; in test [2], 7.23 µM; in [3], 1.36 µM; in [4], 1.44 µM; in test [5], 7.43 µM; in [6], 1.69 µM. Moreover, the GI50 in test [7] is 1.42 µM; in test [8] it was 1.57 µM; in test [9], 2.2 µM; in test [10] it was 1.92 µM. The TGI is 18.8 µM in test [1]; 21.4 µM in test [2]; 2.75 µM in [3]; 3.22 µM in [4]; 22.6 µM in [5]; 3.64 µM in test [6]. The TGI in test [7] is 2.77 µM; in test [8], 3.34 µM; in test [9], 4.82 µM; in test [10] it was 3.99 µM.
For the compound `CCCCCCCCCCCCOC1C(CNC(=O)C2OC3OC(C)(C)OC3C2NC(=O)CN2CCCCCC2)OC2OC(C)(C)OC21` (stereo not given), the GI50 in test [1] is 4.14 µM; in [2], 8.49 µM; in [3], 8.39 µM; in [4] it was 4.03 µM; in [5] it was 6.48 µM; in test [6], 1.79 µM. For the same compound, the GI50 in [7] is 4.06 µM; in test [8] it was 6.22 µM; in test [9], 1.72 µM; in test [10], 10.4 µM. Besides, the TGI in test [1] amounted to 15.7 µM; in [2] it was 21.4 µM; in test [3] it was 23.8 µM; in test [4] it was 14.8 µM; in [5] it was 18.1 µM; in [6] it was 3.47 µM. For the same compound, the TGI in [7] turned out to be 12.8 µM; in [8], 18 µM; in test [9], 3.4 µM; in test [10], 23.4 µM.
`O=C1CCc2c(sc3[nH]c(=S)n(Cc4ccccc4)c(=O)c23)C1`: the GI50 in test [1] was 3.25 µM; in test [2] it was 2.34 µM; in [3], 3.72 µM; in [4] it was 2.78 µM; in test [5] it was 3.84 µM; in [6], 3.75 µM. Further, the GI50 was 3.38 µM in [7], 2.62 µM in [8], 4.4 µM in test [9] and 4 µM in [10]. For the same compound, the TGI in [1] is over 100 µM; in test [2], over 100 µM; in test [3] it was over 100 µM; in test [4], 13.8 µM; in test [5], over 100 µM; in test [6] it was over 100 µM. Also, the TGI in [7] is over 100 µM; in test [8], 9.7 µM; in [9], over 100 µM; in test [10], over 100 µM.
Regarding `C/C(Cc1ccc(Cl)cc1)=C(/c1ccc(Cl)cc1)c1ccc(OCCN(C)C)cc1`, the GI50 was 4.8 µM in test [1]; 3.47 µM in test [2]; 4.53 µM in test [3]; 1.19 µM in [4]; 6.07 µM in test [5]; 5.19 µM in test [6]. For the same compound, the GI50 in [7] was 3.03 µM; in test [8], 4.27 µM; in test [9] it was 4.85 µM; in test [10], 4.55 µM. Further, the TGI in [1] is 9.88 µM; in test [2] it was 7.93 µM; in [3], 9.2 µM; in test [4] it was 4.27 µM; in [5], 11.8 µM; in test [6], 10.8 µM. The TGI stood at 8.74 µM in [7], 8.65 µM in [8], 9.29 µM in test [9] and 9.78 µM in test [10].
As to `O=C(NCCCCCCCCNC(=O)c1cccc2ccccc12)c1cccc2ccccc12`, the TGI in test [1] was over 100 µM; in [2], 13.2 µM; in [3], over 79.9 µM; in test [4], over 100 µM; in test [5], 13.5 µM; in test [6], over 87 µM. The TGI in [7] is over 83.4 µM; in test [8], 27.4 µM; in [9] it was over 94.4 µM; in test [10] it was 23.3 µM.
